In patent publication US20230212571A1, “COMPOSITIONS AND METHODS FOR DELIVERING POLYNUCLEOTIDES” (NeOnc Technologies, Inc., priority 2020, published 2023):

Tests used:
AVM-BEC = conditions: previous results from our laboratory (Ferreira 2014); cited from earlier work
BEC = experiment: Western blot of control BEC lysates; type: cell-based, human; conditions: untreated vs scramble vs miR-18a
Excerpt: Human surgical specimens were obtained following written informed consent from patients in accordance with Declaration of Helsinki guidelines and the Institutional Review Board (HS-04B053), at Keck School of Medicine, USC. AVM-BECs were isolated from brain tissues of patients who underwent microsurgical AVM resection. Control BECs were isolated from the structurally normal […] of patients who underwent temporal lobectomy for intractable epilepsy. Endothelial cell (EC) isolation and culture were described^5,9. (Stapleton C J, Armstrong D L, Zidovetzki R, Liu C Y, Giannotta S L, Hofman F M. Thrombospondin-1 modulates the angiogenic phenotype of human cerebral arteriovenous malformation endothelial cells. Neurosurgery. 2011; 68(5):1342-1353) (Ferreira R, Santos T, Amar A, et al. Argonaute-2 promotes miR-18a entry in human brain endothelial cells. J Am Heart Assoc. 2014; 3(3):e000968) ECs were only used between passages 3-5. Experiments were performed under shear flow conditions (12 dyn/cm^2) to reproduce arterial flow^6. […]
The levels of angiogenesis-related proteins were analyzed using the Proteome Profiler™ Human Angiogenesis Array kit (R&D Systems) following the manufacturer's instructions. […] Membranes were visualized and quantified using a C-Digit Blot scanner (Li-Cor) or a iBright CL1000 (Thermo Fisher Scientific).

[1] = system: Mgp^−/− mouse model of AVM; experiment: In vivo computed tomography angiography (CTA) of brain vasculature
Experimental: In vivo ultra-high-resolution computed tomography angiography (CTA) was performed to study changes in neurovascular architecture like methods described previously. (Mukundan S, Jr., […], Badea C T, et al. A liposomal nanoscale contrast agent for preclinical CT in mice. AJR Am J Roentgenol. 2006; 186(2):300-307) ([…], Rendon D, et al. Ultra-High-Resolution In vivo Computed Tomography Imaging of Mouse Cerebrovasculature Using a Long Circulating Blood Pool Contrast Agent. Scientific reports. 2015; 5:10178). Briefly, mice were anesthetized using 3-4% isoflurane, positioned on a CT cradle and maintained at 1-1.5% isoflurane delivered via nose cone. Mice were intravenously injected a long circulating liposomal-iodine blood pool contrast agent (2.2 g/kg body weight) for CTA^8,9 and scanned on a small animal micro-CT scanner Rigaku CT Lab GX90-1-E. The following scan parameters were used: High Resolution Scan Mode, 70 kVp, 114 uA, 10 mm FOV, 1440 projections, 20 μm voxel size, 14 min scan time. All animal protocols were approved by the USC's Institutional Animal Care and Use Committee (IACUC) and strictly adhered to. MiR-18a was co-administered with Ago-2 (0.0008 nmol/mouse) to increase stability and cellular uptake^9 (Ferreira R, Santos T, Amar A, et al. Argonaute-2 promotes miR-18a entry in human brain endothelial cells. J Am Heart Assoc. 2014; 3(3):e000968). (FIG. 9). Details about randomization, blinding, group size and inclusion/exclusion criteria have been included in Methods. […] The vascular data was quantified using ImageJ. […] The pixels were analyzed as particles and normalized to results from the wildtype mice (WT, Mgp^+/+).

In the case of “hsa-miR-18a-5p (UAGGUGCAUCUAGUGCAGAUAG; chemistry not given here; listed as Homo sapiens) [small non-coding RNA molecule involved in post-transcriptional regulation of gene expression; Dharmacon]”, the “TSP-1 release by AVM-BECs (ELISA of cell supernatants)” value (AVM-BEC) is given as “induces TSP-1 release”, the “levels of bFGF, ET-1, PAI-1 and VEGF (western blot)” value (BEC) is given as “remained unaltered” and the “AzACA vessel density compared to healthy wildtype mice” value ([1]; 0.08 nmol/mouse IN daily for 2-weeks with Ago-2) is given as 92-94%. For the same substance, the “brain vasculature and leakage (CTA)” value ([1]; Mgp^−/− mice, IN 2-weeks) was “normalized” and the “calcifications found in carotids” value ([1]; Mgp^−/− mice, IN 2-weeks) was “no effect”.
